The values that follow come from paper PMC8757871, “Bridging the Antimicrobial Activity of Two Lactoferricin Derivatives in E. coli and Lipid-Only Membranes” (Frontiers in Medical Technology, 2021).

Series [1] is described as follows: solubility of the peptide in buffer (stock preparation). It is filed as physicochemical. Particulars: PBS / HBS stock solutions; acetic acid up to 0.3% and DMSO up to 3% vol/vol added. As to the method:
Peptide stock solutions of LF11-215 and LF11-324 were prepared in PBS solution for bacteria and HBS solution for lipid vesicles. […] AMP concentrations of the stock solutions were determined by comparing against the absorption band of the aromatic amino acids with the spectrophotometer NanoDrop ND-1000 (Thermo Fisher Scientific, Waltham, MA). Peptide stock solutions were stored in silanized glass tubes until use.

Series [2] is described as follows: ANTS/DPX dye leakage assay and equi-activity partitioning analysis. Particulars: for K (mole fraction partitioning coefficient) / RB ([P]B/[L]) / [P]W (peptide concentration in the water phase): fit of Equation (4), [L] = (1−20) mM, [P] = (0.05−2) mM, HBS. The procedure:
(§1) All hydrated samples were equilibrated for 1 h at 40°C followed by 5 freeze-and-thaw cycles using liquid N2 and intermittent vortex-mixing. Large unilamellar vesicles (LUVs) were obtained by 31 extrusions with a handheld mini extruder (Avanti Polar Lipids, Alabaster, AL) using a 100 nm pore diameter polycarbonate filter. Vesicle size and polydispersity were determined via DLS using a Zetasizer NANO ZSP (Malvern Panalytical, Malvern, UK). ANTS/DPX-containing vesicles were separated from free ANTS/DPX by exclusion chromatography using a column filled with SephadexTM G-75 (Amersham Biosciences, Little Chalfont, UK) fine gel swollen in iso-osmotic HBS. Phospholipid concentrations for all samples were determined by phosphate analysis.
Dye leakage experiments were performed combining previously reported protocols ([20], [27]). […] Similar time protocols were applied previously ([27]) and are justified here based on separate time-resolved leakage experiments (Supplementary Figure 3) and Trp-fluorescence measurements (Figure 3), showing that a quasi steady state has been reached after 1 h. Before measurements, lipid/peptide solutions were diluted with HBS to a lipid concentration of 50 μM, and every measurement was repeated at least twice. Vesicle size was checked after each incubation period using DLS. Samples were excited at λ= 360 nm, and the intensity of the fluorescence emission peak at λ= 530 nm, Ip, was recorded with a slit width of 10 nm for both excitation and emission monochromators. Measurements were performed in quartz cuvettes in 2 ml of the iso-osmotic buffer on a Cary Eclipse Fluorescence Spectrophotometer (Varian/Agilent Technologies, Palo Alto, CA). The percentage of leakage, E%, was calculated according to the relation
(§2) (1) E%=Ip-Imin/Imax-Imin,
(§3) where Imin is the initial fluorescence without peptide, and Imax is the fluorescence corresponding to 100% leakage determined through the addition of a 1 vol% solution of Triton X-100. The initial, monotonic increase of E% values with increasing [P] was interpolated with a sigmoidal function. This enabled us to obtain peptide and lipid concentrations leading to a specific E% value, which can in turn be used to calculate the partitioning parameters (see section 2.3.1).
(§4) (4) [P]=RB[W]/K︸[P]W+RB[L]︸[P]B=RB([W]/K+[L]),

Assay in series [3]: as above
Particulars: for K (mole fraction partitioning coefficient) / RB ([P]B/[L]) / [P]W (peptide concentration in the water phase): fit of Equation (4), [L] = (1−20) mM, [P] = (0.05−2) mM, HBS. The procedure:
as §1
Dye leakage experiments were performed combining previously reported protocols ([20], [27]). In brief, the dependencies of ANTS/DPX leakage on lipid and peptide concentration were determined by first incubating lipid vesicles ([L] = 1, 4, 10, and 20 mM) with peptides [[P] = (0.025−2) mM] at 37°C for 1 h using a gently rocking shaker (Eppendorf Thermomixer C, Hamburg, Germany). Similar time protocols were applied previously ([27]) and are justified here based on separate time-resolved leakage experiments (Supplementary Figure 3) and Trp-fluorescence measurements (Figure 3), showing that a quasi steady state has been reached after 1 h. Before measurements, lipid/peptide solutions were diluted with HBS to a lipid concentration of 50 μM, and every measurement was repeated at least twice. Vesicle size was checked after each incubation period using DLS. Samples were excited at λ= 360 nm, and the intensity of the fluorescence emission peak at λ= 530 nm, Ip, was recorded with a slit width of 10 nm for both excitation and emission monochromators. Measurements were performed in quartz cuvettes in 2 ml of the iso-osmotic buffer on a Cary Eclipse Fluorescence Spectrophotometer (Varian/Agilent Technologies, Palo Alto, CA). The percentage of leakage, E%, was calculated according to the relation
as §2, §3, §4
The source holds these as a separate data set.

[4] abbreviates: POPG LUVs, leakage 10%, 1 h at 37°C.
Setting [5] is: POPG LUVs, leakage 20%, 1 h at 37°C.
The mark [6] stands for this setting: POPG LUVs, leakage 40%, 1 h at 37°C.
The mark [7] stands for this setting: POPE/POPG LUVs, leakage 10%, 1 h at 37°C.
Where [8] appears, read: POPE/POPG LUVs, leakage 15%, 1 h at 37°C.
The mark [9] stands for this setting: POPE/POPG/TOCL LUVs, leakage 10%, 1 h at 37°C.
Setting [10] is: POPE/POPG/TOCL LUVs, leakage 20%, 1 h at 37°C.
[11] abbreviates: POPE/POPG/TOCL LUVs, leakage 40%, 1 h at 37°C.

For the substance “H-PFFWRIRIRR-NH2 [LF11-324, H-PFFWRIRIRR-NH2]”, the solubility in buffer result in series [1] is recorded as “weak solubility”.

On to “H-FWRIRIRR-NH2 [LF11-215, H-FWRIRIRR-NH2]”, for which the “K (mole fraction partitioning coefficient)” value is given as 2.4 ± 0.7 ×10^4 in series [2] (setting [4]); 4.2 ± 0.4 ×10^4 in series [2] (setting [5]); 5.4 ± 1.4 ×10^4 in series [2] (setting [6]); 1.37 ± 0.16 ×10^4 in series [3] (setting [7]); 0.75 ± 0.15 ×10^4 in series [3] (setting [8]); 1.7 ± 0.8 ×10^4 in series [3] (setting [9]). In addition, the “K (mole fraction partitioning coefficient)” value in series [3] (setting [10]) was 1.5 ± 0.3 ×10^4; in series [3] (setting [11]), 1.5 ± 0.4 ×10^4. Besides, the “RB ([P]B/[L])” value in series [2] (setting [4]) is listed as 36 ± 4 ×10^−3; in series [2] (setting [5]) it was 55.9 ± 1.6 ×10^−3; in series [2] (setting [6]) it was 72 ± 6 ×10^−3; in series [3] (setting [7]), 9.8 ± 0.4 ×10^−3; in series [3] (setting [8]), 10.7 ± 1.0 ×10^−3; in series [3] (setting [9]), 5.6 ± 0.7 ×10^−3. Moreover, the results for the “RB ([P]B/[L])” value in series [3] (setting [10]) and in series [3] (setting [11]) were 7.2 ± 0.5 ×10^−3 and 9.6 ± 0.9 ×10^−3, respectively. In addition, the “[P]W (peptide concentration in the water phase)” value in series [2] (setting [4]) amounted to 0.08 ± 0.03 mM; in series [2] (setting [5]) it was 0.073 ± 0.009 mM; in series [2] (setting [6]), 0.08 ± 0.03 mM; in series [3] (setting [7]) it was 0.040 ± 0.006 mM; in series [3] (setting [8]), 0.08 ± 0.02 mM; in series [3] (setting [9]) it was 0.018 ± 0.010 mM. The results for the “[P]W (peptide concentration in the water phase)” value in series [3] (setting [10]) and in series [3] (setting [11]) were 0.026 ± 0.007 mM and 0.036 ± 0.012 mM, respectively. Also, the “ANTS/DPX leakage, maximum reached (sigmoidal increase up to)” value in series [2] (POPG LUVs, 1 h at 37°C, increasing [P]) is given as at most 100%. The “fraction of peptides partitioned into the lipid phase” value in series [2] (POPG, at [L] ≃20 mM) is above 90%. In series [3] (PE-containing systems, [L] ≃20 mM), the “maximum amount of partitioned AMPs” value is below 80%. Also, the “ANTS/DPX dye efflux, time-resolved” value in series [3] (POPE/POPG LUVs [L] = 50 µM, [P] = 0.5 µM, converging after 25 min) is around 5%. Moreover, in series [3] (POPE/POPG vesicles, 1 h at 37°C, all [P] and [L] tested), the “total ANTS/DPX efflux” value is listed as at most 40%.
